Data on 2 molecules can be found in paper PMC12022980, “Rational Design of PROTAC Linkers Featuring Ferrocene as a Molecular Hinge to Enable Dynamic Conformational Changes” (Journal of the American Chemical Society, 2025).

Data set [1] can be described thus: Variable temperature NMR (vt-NMR) of amide protons in CDCl3. It counts as physicochemical. Conditions: CDCl3, 298–328 K. An excerpt: With this premise, we performed NMR studies to quantify the HBD solvent exposure of the amide protons using the HBD Acidity NMR score (ANMR)[47] and variable temperature studies (vt-NMR).[48] To note, although vt-NMR has originally been developed and applied to the study of peptides,[49] it is, together with the ANMR value, a well-established method for studying the intramolecular hydrogen bonding (IMHB) patterns in systems such as PROTACs[10],[12],[18],[26] as well as in ferrocene structures.[29],[50]−[53] […]
Standard NMR experiments were performed at 298 K, while variable-temperature NMR experiments recorded spectra across a temperature range from 298 K to 328 K allowing a sufficient temperature equilibration time (10–15 min) before signal acquisition. All NOESY spectra for conformational analysis as well as the assignment spectra in methanol-d 4 were recorded on a 500 MHz Bruker Avance III equipped with a 5 mm QCI cryogenic probe. NOESY spectra were obtained from a sample at 1.25 mM in CDCl3 and 1.25 mM in methanol-d4, recorded at 298 K, using 16 transients, 1024 points in the direct dimension and 512 points in the indirect dimension, a relaxation delay of 1.5 s, and a mixing time of 700 ms. All other spectra used for signal assignment in CDCl3 were recorded on 500 MHz Bruker Avance NEO with a BBFO SmartProbe. […]

The target of the next data set is T1, pVHL30 (Homo sapiens, UniProt P40337).
T1 construct: endogenous in cells; host or cells: HEK293 (ATCC)
T1 sequence (P40337 whole entry): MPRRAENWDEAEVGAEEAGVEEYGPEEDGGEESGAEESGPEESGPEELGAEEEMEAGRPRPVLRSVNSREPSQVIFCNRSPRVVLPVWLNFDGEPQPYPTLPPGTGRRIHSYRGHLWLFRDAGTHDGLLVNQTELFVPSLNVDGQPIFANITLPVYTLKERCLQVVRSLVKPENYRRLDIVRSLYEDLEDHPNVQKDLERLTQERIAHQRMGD
Also on record: method as in PMID 29018234. To be noted: cited from earlier work.

As to `Cc1ncsc1-c1ccc(CNC(=O)[C@@H]2C[C@@H](O)CN2C(=O)[C@@H](NC(=O)CCCCCOCCOCCCCCC(=O)Nc2cccc3c2C(=O)N(C2CCC(=O)NC2=O)C3=O)C(C)(C)C)cc1` (stereo partly shown) [14a], in data set [1], the “temperature coefficient Δδ/ΔT N(1)-H” value is on record as −3.52 ppb/K and the “temperature coefficient Δδ/ΔT N(2)-H” value is −1.57 ppb/K.
As to `Cc1ncsc1-c1ccc(CNC(=O)[C@@H]2C[C@@H](O)CN2C(=O)[C@@H](NC(=O)COCCOCCOCCOCCOCCOCC(=O)N[C@H](C(=O)N2C[C@H](O)C[C@H]2C(=O)NCc2ccc(-c3scnc3C)cc2)C(C)(C)C)C(C)(C)C)cc1` [CM11], the “t1/2 (pVHL30 degradation half-life)” value at pVHL30 (1 μM, calculated from ref 38) was 85.1 min. Also, the DC50 at pVHL30 (reference value, CM11 only run at 1 μM here, read-out: DC50 ± S.D (pVHL30)) is less than 100 nM.
